Molecules are shown by their SMILES.

The target of this assay is T1, 5-lipoxygenase (Rattus norvegicus, UniProt P12527).
T1 construct: 20,000xg supernatant from 6×10^4 homogenized RBL-1 cells; endogenous in cells; host or cells: RBL-1 cells (20,000xg supernatant of homogenate)
T1 sequence (P12527 1-673): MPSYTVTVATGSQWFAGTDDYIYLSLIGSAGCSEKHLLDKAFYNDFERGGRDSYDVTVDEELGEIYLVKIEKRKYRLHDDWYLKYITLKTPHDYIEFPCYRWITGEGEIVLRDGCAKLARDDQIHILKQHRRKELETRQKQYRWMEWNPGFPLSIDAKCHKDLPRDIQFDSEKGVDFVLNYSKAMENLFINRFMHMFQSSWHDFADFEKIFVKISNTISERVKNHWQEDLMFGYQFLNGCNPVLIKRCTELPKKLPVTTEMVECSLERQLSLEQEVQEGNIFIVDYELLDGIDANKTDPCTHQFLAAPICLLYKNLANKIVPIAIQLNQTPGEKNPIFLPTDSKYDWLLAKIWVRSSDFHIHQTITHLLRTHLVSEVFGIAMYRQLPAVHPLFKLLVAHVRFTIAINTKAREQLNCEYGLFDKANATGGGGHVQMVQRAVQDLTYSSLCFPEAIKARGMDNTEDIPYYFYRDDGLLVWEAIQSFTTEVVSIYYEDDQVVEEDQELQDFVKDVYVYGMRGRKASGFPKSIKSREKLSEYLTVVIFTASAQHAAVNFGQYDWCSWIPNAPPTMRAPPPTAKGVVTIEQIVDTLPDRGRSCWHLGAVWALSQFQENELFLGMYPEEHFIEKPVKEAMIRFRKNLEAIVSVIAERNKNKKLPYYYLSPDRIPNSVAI
In words: Lipoxygenase IC50 Determination (in vitro 5-lipoxygenase inhibition, 20,000xg supernatant from homogenized RBL-1 cells). The note with it: radiolabelled arachidonic acid, 2% DMSO, triplicate incubations, read-out: In vitro 5-lipoxygenase inhibitory potency IC50. The assay is classed as biochemical. The protocol:
Lipoxygenase IC50 Determination
Assays to determine 5-lipoxygenase activity were performed in […] incubations containing the 20,000xg supernatant from 6×10^4 homogenized RBL-1 cells, 2% DMSO vehicle and various concentrations of the test compound. Reactions were initiated by addition of radiolabelled arachidonic acid and terminated by acidification and ether extraction. Reaction products were separated from nonconverted substrate by thin layer chromatography and measured by liquid scintillation spectroscopy. All treatments were evaluated in triplicate incubations. Inhibition of 5-lipoxygenase activity was computed by comparison of the quantity of products formed in the treatment incubations to the mean product formation in vehicle control groups (n=8). IC50 values and 95% confidence limits were computed by linear regression analysis of percentage inhibition versus log inhibitor concentration plots. The results of the assay indicate that the compounds are inhibitors of 5-lipoxygenase.
Consider `CC(=O)N(O)C(C)c1ccc2oc3ccccc3c2c1` (stereo not drawn) [Example 1], for which the IC50 turned out to be 290 nM.

As for `CCn1c2ccccc2c2cc(C(C)N(O)C(N)=O)ccc21` (stereo not drawn) [Example 5, N-hydroxy-N-[1-(9-ethylcarbaz-3-yl)ethyl] urea], the IC50 stood at 380 nM.

Regarding `CCn1c2ccccc2c2cc(CN(O)C(=O)NC)ccc21` [Example 4, N-hydroxy-N-(9-ethylcarbaz-3-ylmethyl) N-methyl urea], the IC50 was 390 nM.

The record behind these values is patent US4822811A, “Carbazole lipoxygenase inhibiting compounds, compositions and use” (Abbott Laboratories, priority 1988, dated 1989).
